Test results as given in ChEMBL document CHEMBL1201862, “PubChem BioAssay data set” (2004).
Calls of active or inactive are those of the source.

What was measured:
H4 = test: Luminescence Cell-Based Dose Response HTS to Identify Activators of 5'UTR Stem-Loop Driven Prion Protein mRNA Translation in H4 Neuroglioblastoma Cells. [Related pubchem assays: 1829 (Project Summary), 1814 (Primary HTS)]; type: functional; settings: Homo sapiens
[1] = Luminescence Cell-Based Dose Confirmation HTS to Identify Activators of 5'UTR Stem-Loop Driven Alpha-Synuclein mRNA Translation in H4 Neuroglioblastoma Cells. [Related pubchem assays: 1829 (Project Summary), 1814 (Primary HTS)]; type: functional
[2] = Luminescence Cell-Based Dose Response HTS to Identify Activators of Luciferase Translation or Activity in H4 […] Cells. [Related pubchem assays: 1829 (Project Summary), 1814 (Primary HTS)]; type: functional
[3] = alpha-synuclein stem-loop luciferase translation blockers – H4 neuroglioma cells, luminescence, confirmation (AID 1988); type: functional, cell-based
[4] = Luminescence Cell-Based Dose Retest to Confirm Inhibitors of Cancer Stem Cells. [Related pubchem assays (depositor defined):AID2717, AID2721]; type: functional; settings: Homo sapiens
[5] = microbe, parasite or virus in culture; type: functional; settings: Mycobacterium tuberculosis
[6] = luciferase reporter signal suppression in cells – H4 neuroglioma cells, luminescence, dose response (AID 1990); type: functional, cell-based
[7] = Luminescence Cell-Based Dose Response HTS to Identify Inhibitors of 5'UTR Stem-Loop Driven Prion Protein mRNA Translation in H4 Neuroglioblastoma Cells. [Related pubchem assays: 1827 (Project Summary), 1813 (Primary HTS)]; type: functional
[8] = molecular target: T1, Ubiquitin-conjugating enzyme E2 N (Homo sapiens, UniProt P61088); type: functional;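 further: Dose-response confirmation in a TR-FRET assay detecting UBC13-driven polyubiquitin chain formation, inhibition measured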
T1 sequence (P61088 whole entry): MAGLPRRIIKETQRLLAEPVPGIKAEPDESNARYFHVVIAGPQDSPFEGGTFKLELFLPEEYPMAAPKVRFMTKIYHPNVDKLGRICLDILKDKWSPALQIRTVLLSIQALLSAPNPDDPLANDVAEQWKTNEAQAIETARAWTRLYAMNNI

[9] = molecular target: T2, Calpain-2 catalytic subunit (Sus scrofa, UniProt P43367); test: m-calpain protease blockers, concentration series – biochemical, fluorogenic peptide substrate, dose response (AID 1420); type: functional
T2 sequence (P43367 whole entry): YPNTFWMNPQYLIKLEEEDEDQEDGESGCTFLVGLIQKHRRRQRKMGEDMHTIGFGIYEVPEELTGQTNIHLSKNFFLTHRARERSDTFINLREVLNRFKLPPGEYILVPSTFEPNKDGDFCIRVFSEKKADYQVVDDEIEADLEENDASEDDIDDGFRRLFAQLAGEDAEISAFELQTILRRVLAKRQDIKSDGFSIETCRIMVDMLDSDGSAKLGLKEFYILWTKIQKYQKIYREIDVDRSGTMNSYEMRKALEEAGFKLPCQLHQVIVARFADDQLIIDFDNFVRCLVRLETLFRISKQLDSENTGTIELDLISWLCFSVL

Cytochrome P450 3A4 = Cytochrome P450 3A4 (Homo sapiens, UniProt P08684); settings: Potency;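 further: confirmatory qHTS run detecting inhibitors and substrates of CYP3A4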
[10] = OVCAR8 cell viability loss – plate reader, dry powder samples, PAX8 project, dose response (AID 743197); type: functional, cell-based; settings: OVCAR-8
Paired box protein Pax-8 = Paired box protein Pax-8 (Homo sapiens, UniProt Q06710); test: PAX8 transcriptional activity inhibition in RMG-I – RMG-I cells, luciferase, cherry-pick, dose response (AID 687027); type: functional, cell-based;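 further: luciferase reporter driven by Pax8 target thyroperoxidase promoter measured by SteadyGlo luminescence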
[11] = viability of uninfected HEp-2 cells – cell-based, HTS, cytotoxicity control for RSV inhibitor project, dose response (AID 2410); type: functional; settings: human respiratory syncytial virus
[12] = molecular target: Induced myeloid leukemia cell differentiation protein Mcl-1 (Homo sapiens, UniProt Q07820); type: functional
Chain of Induced myeloid leukemia cell differentiation protein Mcl-1 (Q07820 whole entry): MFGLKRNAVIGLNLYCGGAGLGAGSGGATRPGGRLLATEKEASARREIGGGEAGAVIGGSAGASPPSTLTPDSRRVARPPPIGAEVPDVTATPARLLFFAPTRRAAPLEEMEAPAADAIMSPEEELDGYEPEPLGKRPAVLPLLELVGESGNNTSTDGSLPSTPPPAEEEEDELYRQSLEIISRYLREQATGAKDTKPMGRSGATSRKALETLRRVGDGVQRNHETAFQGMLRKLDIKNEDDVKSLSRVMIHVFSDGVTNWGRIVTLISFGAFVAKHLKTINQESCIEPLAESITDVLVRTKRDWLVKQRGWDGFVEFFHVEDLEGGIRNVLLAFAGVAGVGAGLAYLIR

Chain of Cytochrome P450 3A4 (P08684 whole entry): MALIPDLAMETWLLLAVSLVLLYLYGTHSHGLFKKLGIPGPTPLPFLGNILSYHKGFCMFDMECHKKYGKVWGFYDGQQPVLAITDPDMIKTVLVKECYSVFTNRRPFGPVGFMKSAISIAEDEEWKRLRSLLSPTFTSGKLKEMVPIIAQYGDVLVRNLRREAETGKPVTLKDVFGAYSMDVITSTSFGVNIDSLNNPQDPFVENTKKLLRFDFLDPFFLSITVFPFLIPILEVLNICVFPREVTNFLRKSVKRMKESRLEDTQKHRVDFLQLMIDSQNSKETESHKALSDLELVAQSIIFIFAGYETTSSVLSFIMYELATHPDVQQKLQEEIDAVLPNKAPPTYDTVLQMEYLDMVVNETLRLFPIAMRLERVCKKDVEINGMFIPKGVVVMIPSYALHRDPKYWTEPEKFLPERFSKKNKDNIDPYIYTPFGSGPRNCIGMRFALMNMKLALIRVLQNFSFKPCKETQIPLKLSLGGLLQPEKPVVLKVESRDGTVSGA
Chain of Paired box protein Pax-8 (Q06710 whole entry): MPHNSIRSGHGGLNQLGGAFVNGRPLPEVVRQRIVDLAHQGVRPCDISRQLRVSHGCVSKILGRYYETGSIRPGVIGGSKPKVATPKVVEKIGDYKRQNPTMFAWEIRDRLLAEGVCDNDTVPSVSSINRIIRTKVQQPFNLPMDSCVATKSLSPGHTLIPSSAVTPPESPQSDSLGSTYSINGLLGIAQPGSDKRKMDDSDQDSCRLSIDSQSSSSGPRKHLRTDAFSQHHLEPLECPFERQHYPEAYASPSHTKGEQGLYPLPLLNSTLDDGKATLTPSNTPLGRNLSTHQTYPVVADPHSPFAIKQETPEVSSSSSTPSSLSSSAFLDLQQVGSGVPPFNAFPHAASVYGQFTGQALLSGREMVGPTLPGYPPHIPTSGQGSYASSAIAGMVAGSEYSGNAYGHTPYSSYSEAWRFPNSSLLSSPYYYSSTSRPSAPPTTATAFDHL

O=C1/C(=C\Nc2ccc(OC(F)(F)F)cc2)CCN1c1ncccn1
EC50 (H4): 14.6 µM (active)
EC50 [1]: 20.4 µM (active)
EC50 [2]: 23.7 µM (active)

COc1ccc(Nc2nc(N)c([N+](=O)[O-])c(NC3CCCCC3)n2)cc1
EC50 [3]: 17.2 µM (active)
AC50 [4]: 3.53 µM (active)
CC50 [5]: 32 µM (active)
EC50 [6]: 14.8 µM (active)
EC50 [7]: 10.7 µM (active)

COc1ccc(NC(=O)C2C(=O)N(CCO)C3(C)CC2c2ccccc2O3)cc1 (stereo unspecified)
EC50 (H4): 10.2 µM (active)
EC50 [1]: 7.35 µM (active)
EC50 [2]: 14.8 µM (active)

O=C1NC(=S)N/C1=C/c1cccc2ccccc12
EC50 (H4): > 120 µM (not active)
EC50 [1]: 17.7 µM (active)
EC50 [2]: 8.63 µM (active)

CCN1C(NCc2ccc(OC)cc2)=N[C@@H](CCc2ccccc2)[C@H](C(=O)NCc2ccc(OC)cc2)[C@H]1C
IC50 [8]: > 20 µM (inactive)

COC(=O)c1cccc(NC(=O)c2cccc(OC)c2)c1
IC50 [9]: 14.6 µM (not active)

O=C(O)CC(NC(=O)C1c2ccccc2Oc2ccccc21)c1ccc(OC2CCCC2)cc1 (stereo unspecified)
IC50 [9]: 6.06 µM (not active)

Cc1sc2c(c1C)CN(Cc1ccncc1)CN2C(=O)c1ccco1
EC50 (H4): > 60 µM (not active)
EC50 [1]: > 120 µM (not active)
EC50 [2]: 11 µM (active)

CC(C)CC1(C(=O)NCc2ccccn2)C=CCN1C(=O)c1ccccc1 (stereo unspecified)
AC50 (Cytochrome P450 3A4): 15.8 µM (inconclusive)

N=C1C=CC(=C(c2cccc(N)c2)c2cccc(N)c2)C=C1
AC50 (Cytochrome P450 3A4): 5.01 µM (active)

CN1C(=O)/C(=C2/C(=O)Nc3ccccc32)S/C1=N\c1ccc(Cl)cc1
EC50 (H4): 32.3 µM (active)
EC50 [1]: 12.7 µM (active)
EC50 [2]: 46.1 µM (active)

C[C@@H]1CN([C@@H](C)CO)C(=O)c2cc(NC(=O)Nc3ccc(C(F)(F)F)cc3)ccc2O[C@@H](C)CCCCO[C@@H]1CN(C)Cc1ccccc1
AC50 [10]: > 60 µM (inactive)
AC50 (Paired box protein Pax-8): 9.49 µM (active)

CC(=O)OC1CC2C(C)(C)C(O)C=C[C@@]2(C)C2CC[C@@]3(C)C(c4ccoc4)OC(=O)C4OC43[C@]12C (stereo partly specified)
AC50 (Cytochrome P450 3A4): 12.6 µM (inconclusive)

CCOC(=O)c1c(C)[nH]c(C(=O)COC(=O)C23CC4CC(CC(Cl)(C4)C2)C3)c1C
IC50 [9]: 4.08 µM (not active)
CC50 [11]: > 50 µM (active)

Cc1cccc(OCCCC(=O)Nc2ccc(N(C)C)cc2)c1
IC50 [12]: < 0.4 µM (active)
